Where a SMILES comes first, the peptide text is derived from it. The star is where a group is joined. X2 = O=C(O)C[C@H](N*)C(=O)COc1c(F)cccc1F; Quinaldoyl = O=C(c1ccc2ccccc2n1)*
Legend:
HeLa cells = assay: Protection against vincristine-induced cell death, propidium iodide flow cytometry; assay type: cell-based, human; set-up: Index of cell death: key to the marks not given beside the values; settings: 20 nM Vincristine for 48 hours, propidium iodide positive cells
Protocol: Human HeLa cells are used in this model. HeLa cells (cervical cancer cell line) were obtained from American Type Cell Collection (ATCC), and were cultured in Dulbecco's Modified Eagle Medium (DMEM, High Glucose, GlutaMAX™, Pyruvate) (Gibco, Life technologies), supplemented with 10% FCS and antibiotics (Gibco, Life technologies).
Human HeLa cells are treated with a solution of Vincristine (Sigma Aldrich) (diluted in water at 5 mM). Vincristine works partly by binding to the Tubulin protein, stopping the cell from separating its chromosomes during the metaphase; the cell then undergoes apoptosis through a caspase-dependent process.
Propidium iodide (PI) (Sigma Aldrich) is used to evaluate plasma membrane permeabilisation, a sign of cell death.
24 hours before pharmacological treatment, HeLa cells were plated into 24-well plates. […] Cells were exposed or not (control), to 20 nM Vincristine for 48 hours.
The content of each well is collected is added to PBS and then centrifuged (900 rpm; 5 min).
The pellet obtained is put into 300 μL of a medium comprising propidium iodide and incubated (37° C., 5% CO2) in the dark for 5 minutes and then subjected to flow cytometry analysis.
Fluorescence-Activated Cell Sorting was performed using a FACSCalibur cytometer (Becton Dickinson, San Jose, Calif.). For each sample, data from 5,000 Cells were registered and analyzed with the CellQuest Pro software (Becton Dickinson). Analysis included FSC (Forward Scatter/relating to the cells'size) and SSC (Side Scatter/relating to the cells' granularity) parameters together with FL-1 and FL-3 channel.
The percentage of propidium iodide positive cells gives an estimation of cell death.

Caspase-2 = molecular target: T1, Caspase-2 (Homo sapiens, UniProt P42575); assay: Caspase-2 inhibition assay for irreversible inhibitors (kinact/KI, continuous method); assay type: biochemical
T1 construct: the Caspase-2 and Caspase-3 are human recombinant active enzymes; purchased Enzo Life ALX-201-057-U100
T1 sequence (P42575 170-325 limits assumed): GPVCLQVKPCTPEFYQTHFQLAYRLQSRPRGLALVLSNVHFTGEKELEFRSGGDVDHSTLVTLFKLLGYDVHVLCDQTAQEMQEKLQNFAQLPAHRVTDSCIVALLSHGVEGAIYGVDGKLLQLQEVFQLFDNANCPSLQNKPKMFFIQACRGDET
T1 sequence (P42575 348-452 limits assumed): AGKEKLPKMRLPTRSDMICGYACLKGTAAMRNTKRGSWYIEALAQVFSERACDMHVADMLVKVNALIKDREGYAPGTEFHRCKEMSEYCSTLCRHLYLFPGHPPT
Protocol: (§1) The efficiency of the comparative compound Δ2Me-TRP601, that is an already known group II Caspase inhibitor (inhibitor of Caspase-2, Caspase-3 and Caspase-7), has been assessed by a similar protocol described in Chauvier et al., 2011 Cell Death Dis 2011, 2:e203.
(§2) In this example, the Caspase-2 and Caspase-3 are human recombinant active enzymes that are respectively provided by Enzo Life® (ALX-201-057-U100) and R&D Systems® (707-C3-010/CF).
Caspase-2 is used at a final concentration of 0.1 nM in a “Caspase-2 buffer” containing 20 mM HEPES (pH 7.4), 5 mM DTT, 2 mM EDTA, 0.1% CHAPS and 800 mM succinate. Caspase-3 is used at a final concentration of 0.5 nM in a “Caspase-3 buffer” containing 20 mM HEPES (pH 7.4), 0.1% CHAPS, 5 mM DTT, and 2 mM EDTA.
(§3) The peptide substrates used for the enzymatic activity measurements are Ac-DEVD-AMC and Ac-VDVAD-AMC commercialized by EnzoLife® (respectively referenced ALX-260-031-M005 and ALX-260-060-M005). They are fluorogenic due to the presence of their AMC (7-amino-4-methylcoumarin) end group. The releasing of AMC enables to follow the enzymatic activity in fluorescence unit RFU over time in a 96-wells microplate.
The fluorescence values are measured at 37° C. with a spectrofluorometer with a microplate reader BMG FLUOstar OPTIMA. This apparatus is driven by the software Biolise® and is equipped with thermoelectric cooling device by Peltier effect. The mathematical analyses of the experimental data are done with the software Kaleidagraph®.
The inhibitory properties of the tested compounds are evaluated by the determination of the kinact/KI ratio regarding either Caspase-2 or Caspase-3 wherein: • kinact is the maximal inactivation rate constant, and • KI is the dissociation constant according to:
Said ratio is measured according to the continuous method (Allison R D. Curr Protoc Protein Sci. 2001 May; Chapter 3:Unit 3.5.; Chauvier et al., 2011 Cell Death Dis 2:e203; Tan et al., J Med Chem 2015, […]).
Briefly, Caspases activities were determined by monitoring the hydrolysis of fluorogenic substrates (λexc=355 nm, λem=460 nm) as a function of time, in the presence of untreated Caspases (control) or Caspases that had been incubated with a test compound, for 30 min minimum at 37° C. using a BMG Fluostar microplate reader (black 96-well microplates) and the initial velocity (V0) was determined from the linear portion of the progress curve.
Substrates and compounds were previously dissolved in DMSO at 10 mM, with the final solvent concentration kept at lower 4% (v/v). V0, relative velocities, KM and IC50 were determined from experimental data using Mars data Analysis 2.0 and Kaleidagraph softwares.
Inhibitor binding affinity (dissociation constant, KI) and first-order rate constant (k3) parameters were determined for Caspase-2 and Caspase-3 using the progress curve method. The ratio k3/KI was obtained by fitting the experimental data to the equations (F.U., fluorescence unit): […]
A continuous method of determination of the kinact/KI ratio was used for evaluating the inhibitory activity of the tested compounds against Caspase-2 and Caspase-3.
The reaction mixture is prepared by letting the enzyme and the buffer incubate at 37° C.
The tested inhibitory compounds are prepared at different concentrations (¼ IC50; ½ IC50; IC50; 2 IC50; 4 IC50) and put in the microplate.
Then the reaction mixture comprising the enzyme, the buffer and the substrate is rapidly added in the wells.
The activities of the enzyme are measured between 45 and 60 minutes.
The RFU (Relative Fluorescence Units)=f(times) curves are traced for each concentration of tested molecule according to the following equation: ((((−V0)*(exp(−kobs*m0)))+V0)/kobs*)+RFU0
in which: • V0 corresponds to the initial rate (RFU·s^−1) in the concentration of 0 of the tested inhibitory compound; • kobs is the inactivation rate constant; • RFU0 is the fluorescence value at t=0 min; and • m0 is the variable i.e. the inhibitor concentration.

Caspase-3 = molecular target: T2, Caspase-3 (Homo sapiens, UniProt P42574); assay: Caspase-3 inhibition assay for irreversible inhibitors (kinact/KI, continuous method); assay type: biochemical; settings: human recombinant Caspase-3 0.5 nM, 37° C.
T2 construct: the Caspase-2 and Caspase-3 are human recombinant active enzymes; purchased R&D Systems 707-C3-010/CF
T2 sequence (P42574 29-175 limits assumed): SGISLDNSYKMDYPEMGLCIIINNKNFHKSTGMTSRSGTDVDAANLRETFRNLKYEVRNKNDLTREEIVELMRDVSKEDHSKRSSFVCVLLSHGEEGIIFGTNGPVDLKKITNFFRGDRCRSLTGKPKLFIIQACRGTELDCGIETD
T2 sequence (P42574 176-277 limits assumed): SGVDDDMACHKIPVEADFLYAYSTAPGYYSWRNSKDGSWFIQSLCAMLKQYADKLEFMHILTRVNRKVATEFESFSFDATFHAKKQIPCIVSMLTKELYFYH
Protocol: as §1, §2
Caspase-2 is used at a final concentration of 0.1 nM in a “Caspase-2 buffer” containing 20 mM HEPES (pH 7.4), 5 mM DTT, 2 mM EDTA, 0.1% CHAPS and 800 mM succinate. […]
as §3, with “They are fluorogenic due to the presence of their AMC (7-amino-4-methylcoumarin) end group.” left out
The fluorescence values are measured at 37° C. with a spectrofluorometer with a microplate reader BMG FLUOstar OPTIMA. […]
The inhibitory properties of the tested compounds are evaluated by the determination of the kinact/KI ratio regarding either Caspase-2 or Caspase-3 wherein: • kinact is the maximal inactivation rate constant, and • KI is the dissociation constant according to: […]
The activities of the enzyme are measured between 45 and 60 minutes. […]

Compound	Index of cell death (HeLa cells)	Selectivity for Caspase 2 (Caspase-2; comparison of kinact/KI ratios regarding caspase 2 and 3)	k3/KI Casp2 (Caspase-2; human recombinant Caspase-2 0.1 nM, 37° C.)	Selectivity ratio (C2/C3) (Caspase-2; ratio of k3/KI Casp2 to Casp3)	k3/KI Casp3 (Caspase-3)
CC[C@]1(O)C[C@H]2CN(CCc3c([nH]c4ccccc34)[C@@](C(=O)OC)(c3cc4c(cc3OC)N(C=O)[C@H]3[C@@](O)(C(=O)OC)[C@H](OC(C)=O)[C@]5(CC)C=CCN6CC[C@]43[C@@H]65)C2)C1 [Vincristine alone, Vincristine, reference compound]	++++	–	–	–	–
CC(C)[C@H](NC(=O)c1ccc2ccccc2n1)C(=O)N[C@@H](CC(=O)O)C(=O)N[C@H](C(=O)N[C@@H](C)C(=O)N[C@@H](CC(=O)O)C(=O)COc1c(F)cccc1F)C(C)C [Δ2Me-TRP-601, reference compound] (Quinaldoyl-VDVA-X2)	–	no	1 586 020 M^−1 · s^−1	0.98	1 613 405 M^−1 · s^−1
